# Experimental data taken from patent US11446287B2, “Compounds and methods for EP300 or CBP modulation and indications therefor” (Opna Immuno-Oncology SA, priority 2019, dated 2022).
# Molecular target: T1, Recombinant human CBP containing the bromodomain (CBP-BD (1043-1159)) (Homo sapiens, UniProt Q92793)
# T1 construct: Recombinant human CBP bromodomain (CBP-BD (1043-1159)); made in house; host or cells: E. coli BL21-CodonPlus (DE3), modified pET vector
# Assay: CBP Alphascreen binding assay
# Conditions: read-out: CREBBP (CBP) IC50
# Outline: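 Buffer: 50 mM HEPES pH 7.5, 50 mM NaCl, 0.01% BSA, 0.01% Triton X-100, 2 mM DTT. The signal was normalised to plate controls and fitted with a four-parameter curve to give IC50.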
# T1 sequence (Q92793 1081-1197): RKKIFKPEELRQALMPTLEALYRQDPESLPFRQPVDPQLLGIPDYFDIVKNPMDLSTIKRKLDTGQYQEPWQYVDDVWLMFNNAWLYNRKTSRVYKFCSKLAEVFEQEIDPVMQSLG
row,Compound,IC50 [nM]
1,"CCc1onc(C)c1-c1cnc2c(c1)c(-c1c(Cl)cc(C(=O)O)cc1OC(F)(F)F)cn2-c1ccc(C2CC2)nc1 [P-0448, 3-chloro-4-(1-(6-cyclopropylpyridin-3-yl)-5-(5-ethyl-3-methylisoxazol-4-yl)-1H-pyrrolo[2,3-b]pyridin-3-yl)-5-(trifluoromethoxy)benzoic acid]",0.1 to 1000
2,"CCOc1cc(C(=O)O)nc(OCC)c1-c1cn(-c2cnc(C3CC3)nc2)c2ncc(-c3c(C)noc3C)cc12 [P-0424, 5-(1-(2-cyclopropylpyrimidin-5-yl)-5-(3,5-dimethylisoxazol-4-yl)-1H-pyrrolo[2,3-b]pyridin-3-yl)-4,6-diethoxypicolinic acid]",0.1 to 1000
3,"CCc1noc(C)c1-c1cnc2c(c1)c(-c1ccc(C(=O)O)cc1OC(F)(F)F)cn2C1CCOCC1 [P-0400, 4-(5-(3-ethyl-5-methylisoxazol-4-yl)-1-(tetrahydro-2H-pyran-4-yl)-1H-pyrrolo[2,3-b]pyridin-3-yl)-3-(trifluoromethoxy)benzoic acid]",0.1 to 1000
4,"CCOc1nc(C(=O)O)cc(C)c1-c1cn(C(C2CC2)C2CC2)c2ncc(-c3c(C)noc3C)cc12 [P-0417, 5-(1-(dicyclopropylmethyl)-5-(3,5-dimethylisoxazol-4-yl)-1H-pyrrolo[2,3-b]pyridin-3-yl)-6-ethoxy-4-methylpicolinic acid]",0.1 to 1000
5,"Cc1noc(C)c1-c1cnc2c(c1)c(-c1cnn(C(C)(C)C(=O)O)c1)cn2C(c1ccccn1)C1CCCC1 (stereo not drawn) [P-0035, 2-(4-(1-(cyclopentyl(pyridin-2-yl)methyl)-5-(3,5-dimethylisoxazol-4-yl)-1H-pyrrolo[2,3-b]pyridin-3-yl)-1H-pyrazol-1-yl)-2-methylpropanoic acid]",0.1 to 1000
6,"Cc1noc(C)c1-c1cnc2c(c1)c(-c1c(Cl)cc(C(=O)O)cc1OC1CCC1)cn2-c1ncccc1C#N [P-0396, 3-chloro-4-(1-(3-cyanopyridin-2-yl)-5-(3,5-dimethylisoxazol-4-yl)-1H-pyrrolo[2,3-b]pyridin-3-yl)-5-cyclobutoxybenzoic acid]",0.1 to 1000
7,"CCOc1nc(C(=O)O)c(Cl)cc1-c1cn(C2CCOCC2)c2ncc(-c3c(C)noc3C)cc12 [P-0398, 3-chloro-5-(5-(3,5-dimethylisoxazol-4-yl)-1-(tetrahydro-2H-pyran-4-yl)-1H-pyrrolo[2,3-b]pyridin-3-yl)-6-ethoxypicolinic acid]",0.1 to 1000
8,"Cc1noc(C)c1-c1cnc2c(c1)c(-c1c(Cl)cc(C(=O)O)cc1OC(F)(F)F)cn2-c1ccc(C2CC2)nc1 [P-0441, 3-chloro-4-(1-(6-cyclopropylpyridin-3-yl)-5-(3,5-dimethylisoxazol-4-yl)-1H-pyrrolo[2,3-b]pyridin-3-yl)-5-(trifluoromethoxy)benzoic acid]",0.1 to 1000
9,"Cc1noc(C)c1-c1cnc2c(c1)c(-c1c(Cl)cc(C(=O)O)cc1OC(C)C)cn2-c1cnc(C2CC2)nc1 [P-0393, 3-chloro-4-(1-(2-cyclopropylpyrimidin-5-yl)-5-(3,5-dimethylisoxazol-4-yl)-1H-pyrrolo[2,3-b]pyridin-3-yl)-5-isopropoxybenzoic acid]",0.1 to 1000
10,"CCOc1cc(C(=O)O)nc(OCC)c1-c1cn(-c2ncccc2C(N)=O)c2ncc(-c3c(C)noc3C)cc12 [P-0422, 5-(1-(3-carbamoylpyridin-2-yl)-5-(3,5-dimethylisoxazol-4-yl)-1H-pyrrolo[2,3-b]pyridin-3-yl)-4,6-diethoxypicolinic acid]",0.1 to 1000
11,"COC(=O)c1cc(-c2cn(C(c3ccccn3)C3CCC3)c3ncc(-c4c(C)noc4C)cc23)ccn1 (stereo not drawn) [P-0046, methyl 4-(1-(cyclobutyl(pyridin-2-yl)methyl)-5-(3,5-dimethylisoxazol-4-yl)-1H-pyrrolo[2,3-b]pyridin-3-yl)picolinate]",0.1 to 1000
12,"Cc1noc(C)c1-c1cnc2c(c1)c(-c1ccc(C(=O)O)cc1OC(C)C)cn2C1(C)CCOCC1 [P-0403, 4-(5-(3,5-dimethylisoxazol-4-yl)-1-(4-methyltetrahydro-2H-pyran-4-yl)-1H-pyrrolo[2,3-b]pyridin-3-yl)-3-isopropoxybenzoic acid]",0.1 to 1000
13,"Cc1noc(C)c1-c1cnc2c(c1)c(-c1c(F)cc(C(=O)O)cc1OC1CC1)cn2C1CCOCC1 [P-0397, 3-cyclopropoxy-4-(5-(3,5-dimethylisoxazol-4-yl)-1-(tetrahydro-2H-pyran-4-yl)-1H-pyrrolo[2,3-b]pyridin-3-yl)-5-fluorobenzoic acid]",0.1 to 1000
14,"Cc1noc(C)c1-c1cnc2c(c1)c(-c1ccnc(C(=O)O)c1)cn2C(C1CC1)C1CC1 [P-0041, 4-(1-(dicyclopropylmethyl)-5-(3,5-dimethylisoxazol-4-yl)-1H-pyrrolo[2,3-b]pyridin-3-yl)picolinic acid]",0.1 to 1000
15,"Cc1noc(C)c1-c1cnc2c(c1)c(-c1ccnc(C(=O)O)c1)cn2CC1CC1 [P-0045, 4-(1-(cyclopropylmethyl)-5-(3,5-dimethylisoxazol-4-yl)-1H-pyrrolo[2,3-b]pyridin-3-yl)picolinic acid]",0.1 to 1000
16,"CCOc1cc(C(=O)O)nc(OCC)c1-c1cn(-c2ccc(C#N)cc2F)c2ncc(-c3c(C)noc3C)cc12 [P-0423, 5-(1-(4-cyano-2-fluorophenyl)-5-(3,5-dimethylisoxazol-4-yl)-1H-pyrrolo[2,3-b]pyridin-3-yl)-4,6-diethoxypicolinic acid]",0.1 to 1000
17,"Cc1noc(C)c1-c1cnc2c(c1)c(-c1c(Cl)cc(C(=O)O)cc1OC(C)C)cn2C1(C)CCOCC1 [P-0404, 3-chloro-4-(5-(3,5-dimethylisoxazol-4-yl)-1-(4-methyltetrahydro-2H-pyran-4-yl)-1H-pyrrolo[2,3-b]pyridin-3-yl)-5-isopropoxybenzoic acid]",0.1 to 1000
18,"Cc1noc(C)c1-c1cnc2c(c1)c(-c1cccc(C(=O)O)c1)cn2Cc1ccccn1 [P-0049, 3-(5-(3,5-dimethylisoxazol-4-yl)-1-(pyridin-2-ylmethyl)-1H-pyrrolo[2,3-b]pyridin-3-yl)benzoic acid]",0.1 to 1000
19,"Cc1noc(C)c1-c1cnc2c(c1)c(-c1c(Cl)cc(C(=O)O)cc1OC1CC1)cn2-c1ncccc1C#N [P-0409, 3-chloro-4-(1-(3-cyanopyridin-2-yl)-5-(3,5-dimethylisoxazol-4-yl)-1H-pyrrolo[2,3-b]pyridin-3-yl)-5-cyclopropoxybenzoic acid]",0.1 to 1000
20,"CCOc1nc(C(=O)O)cc(C)c1-c1cn(-c2ccc(F)cc2F)c2ncc(-c3c(C)noc3C)cc12 [P-0412, 5-(1-(2,4-difluorophenyl)-5-(3,5-dimethylisoxazol-4-yl)-1H-pyrrolo[2,3-b]pyridin-3-yl)-6-ethoxy-4-methylpicolinic acid]",0.1 to 1000
21,"Cc1nnn(C)c1-c1cnc2c(c1)c(-c1cccc(C(=O)O)c1)cn2[C@@H](C)c1ccccn1 [P-0449, (S)-3-(5-(1,4-dimethyl-1H-1,2,3-triazol-5-yl)-1-(1-(pyridin-2-yl)ethyl)-1H-pyrrolo[2,3-b]pyridin-3-yl)benzoic acid]",0.1 to 1000
22,"Cc1noc(C)c1-c1cnc2c(c1)c(-c1c(F)cc(C(=O)O)cc1OC1CC1)cn2C(C1CC1)C1CC1 [P-0394, 3-cyclopropoxy-4-(1-(dicyclopropylmethyl)-5-(3,5-dimethylisoxazol-4-yl)-1H-pyrrolo[2,3-b]pyridin-3-yl)-5-fluorobenzoic acid]",0.1 to 1000
23,"Cc1noc(C)c1-c1cnc2c(c1)c(-c1ccc(C(=O)O)cc1OC(F)(F)F)cn2C1CCC(C#N)C1 (stereo not drawn) [P-0389, 4-(1-(3-cyanocyclopentyl)-5-(3,5-dimethylisoxazol-4-yl)-1H-pyrrolo[2,3-b]pyridin-3-yl)-3-(trifluoromethoxy)benzoic acid]",0.1 to 1000
24,"Cc1noc(C)c1-c1cnc2c(c1)c(-c1cnn(CC(=O)O)c1)cn2C(c1ccccn1)C1CCCC1 (stereo not drawn) [P-0036, 2-(4-(1-(cyclopentyl(pyridin-2-yl)methyl)-5-(3,5-dimethylisoxazol-4-yl)-1H-pyrrolo[2,3-b]pyridin-3-yl)-1H-pyrazol-1-yl)acetic acid]",0.1 to 1000
25,"CCOc1cc(C(=O)O)c(F)cc1-c1cn(C2CCN(C(=O)OC(C)(C)C)CC2)c2ncc(-c3c(C)noc3C)cc12 [P-0442, 4-(1-(1-(tert-butoxycarbonyl)piperidin-4-yl)-5-(3,5-dimethylisoxazol-4-yl)-1H-pyrrolo[2,3-b]pyridin-3-yl)-5-ethoxy-2-fluorobenzoic acid]",0.1 to 1000
26,"Cc1noc(C)c1-c1cnc2c(c1)c(-c1cc(F)c(C(=O)O)cc1OC(F)(F)F)cn2-c1ccc(C2CC2)nc1 [P-0444, 4-(1-(6-cyclopropylpyridin-3-yl)-5-(3,5-dimethylisoxazol-4-yl)-1H-pyrrolo[2,3-b]pyridin-3-yl)-2-fluoro-5-(trifluoromethoxy)benzoic acid]",0.1 to 1000
27,"CCc1onc(C)c1-c1cnc2c(c1)c(-c1ccc(C(=O)O)cc1OC(F)(F)F)cn2C1CCOCC1 [P-0401, 4-(5-(5-ethyl-3-methylisoxazol-4-yl)-1-(tetrahydro-2H-pyran-4-yl)-1H-pyrrolo[2,3-b]pyridin-3-yl)-3-(trifluoromethoxy)benzoic acid]",0.1 to 1000
28,"CCOc1nc(C(=O)O)c(Cl)cc1-c1cn([C@H]2CCOC2)c2ncc(-c3c(C)noc3C)cc12 [P-0406, (S)-3-chloro-5-(5-(3,5-dimethylisoxazol-4-yl)-1-(tetrahydrofuran-3-yl)-1H-pyrrolo[2,3-b]pyridin-3-yl)-6-ethoxypicolinic acid]",0.1 to 1000
29,"CCOc1cc(C(=O)OC)nc(OCC)c1-c1cn(-c2ccc(F)cc2F)c2ncc(-c3c(C)noc3C)cc12 [P-0432, methyl 5-(1-(2,4-difluorophenyl)-5-(3,5-dimethylisoxazol-4-yl)-1H-pyrrolo[2,3-b]pyridin-3-yl)-4,6-diethoxypicolinate]",0.1 to 1000
30,"CCOc1nc(C(=O)O)cc(C)c1-c1cn(C2CCOCC2)c2ncc(-c3c(C)noc3C)cc12 [P-0411, 5-(5-(3,5-dimethylisoxazol-4-yl)-1-(tetrahydro-2H-pyran-4-yl)-1H-pyrrolo[2,3-b]pyridin-3-yl)-6-ethoxy-4-methylpicolinic acid]",0.1 to 1000
